Results from patent publication US10912780B2, “Heterocyclic compounds useful as anti-bacterial agents and method for production thereof” (Bugworks Research, Inc., priority 2017, dated 2021).
Values after ≈ are worked out from the molar mass of the structure shown.

Tests used:
[1] = tested on: Enterococcus faecalis ATCC 29212; test: Minimum Inhibitory Concentration (MIC) in LB media; format: cell-based; details: Enterococcus faecalis, ATCC29212, read-out: Minimum Inhibitory Concentration E. faecalis ATCC 29212
From the text: (§1) The compounds of Formula (I) are of interest due to their potent antibacterial effects. The ability of the invention compounds disclosed herein to achieve an antibacterial effect may be evaluated with regard to their ability to inhibit the growth of bacterial species like Escherichia coli ATCC 25922, Staphylococcus aureus ATCC 29213, Klebsiella pneumoniae ATCC 13883, Acinetobacter baumannii ATCC 19606, Pseudomonas aeruginosa ATCC 27853, Enterococcus faecalis ATCC 29212 and Enterococcus faecalis ATCC 29212 using an assay based on the following Minimum Inhibitory Concentration (MIC) protocol:
(§2) The medium sterility is checked by incubating at 37° C. for a period of 48 h.
(§3) Bacterial cultures that are stored as glycerol stocks at −80° C. are sub cultured on LB agar plates to obtain isolated colonies. A single colony of each strain is cultured in LB broth. The cultures are incubated at 37 C, 200 rpm till they reach an optical density (OD at 600 nm) of 0.8 to 1. […] Test compounds are dissolved in dimethyl sulfoxide (DMSO) to a stock concentration of 4 mg/ml. A twofold dilution series of this DMSO stock is prepared in a 96 well V bottom microtitre plate from rows A to H. A 3 μL volume of these dilutions are transferred to a 96-well flat bottom microtitre assay plate. Controls to monitor the effects of DMSO and media sterility are included. Each well is inoculated with 150 μL of the above diluted culture. The plates are incubated at 37° C. overnight in a humidified incubator. The following morning, the plates are read using a Spectrophotometer at 600 nm wavelength. […] The antibacterial activity (MIC) determined against representative Gram positive (S. aureus, E. faecalis) and Gram negative (E.coli, -P. aeruginosa and A. baumannii) pathogen were reported Table 1.

[2] = tested on: Escherichia coli ATCC 25922; test: Minimum Inhibitory Concentration (MIC) in LB media; format: cell-based; details: Escherichia coli, ATCC25922, read-out: Minimum Inhibitory Concentration E. coli ATCC 25922
From the text: as §1, §2, §3

[3] = tested on: Klebsiella pneumoniae ATCC 13883; test: Minimum Inhibitory Concentration (MIC) in LB media; format: cell-based; details: Klebsiella pneumoniae, ATCC13883, read-out: Minimum Inhibitory Concentration K. pneumoniae ATCC 13883
From the text: as §1, §2, §3

[4] = tested on: Pseudomonas aeruginosa ATCC 27853; test: Minimum Inhibitory Concentration (MIC) in LB media; format: cell-based; details: Pseudomonas aeruginosa, ATCC27853, read-out: Minimum Inhibitory Concentration P. aeruginosa ATCC 27853
From the text: as §1, §2, §3

[5] = tested on: Staphylococcus aureus ATCC 29213; test: Minimum Inhibitory Concentration (MIC) in LB media; format: cell-based; details: Staphylococcus aureus, ATCC29213, read-out: Minimum Inhibitory Concentration S. aureus ATCC 29213
From the text: as §1, §2, §3

[6] = tested on: Acinetobacter baumannii ATCC 19606; test: Minimum Inhibitory Concentration (MIC) in LB media; format: cell-based; details: Acinetobacter baumannii, ATCC19606;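 further: twofold compound dilutions from DMSO stocks in LB broth microplates, overnight incubation at 37 °C, growth read by absorbance at 600 nm, with DMSO and sterility controls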
[7] = biological target: E. coli DNA gyrase (Escherichia coli, UniProt P0AES4+P0AES6); test: biochemical; details: supercoiling assay
Sequence of E. coli DNA gyrase (P0AES4 whole entry, one chain of several): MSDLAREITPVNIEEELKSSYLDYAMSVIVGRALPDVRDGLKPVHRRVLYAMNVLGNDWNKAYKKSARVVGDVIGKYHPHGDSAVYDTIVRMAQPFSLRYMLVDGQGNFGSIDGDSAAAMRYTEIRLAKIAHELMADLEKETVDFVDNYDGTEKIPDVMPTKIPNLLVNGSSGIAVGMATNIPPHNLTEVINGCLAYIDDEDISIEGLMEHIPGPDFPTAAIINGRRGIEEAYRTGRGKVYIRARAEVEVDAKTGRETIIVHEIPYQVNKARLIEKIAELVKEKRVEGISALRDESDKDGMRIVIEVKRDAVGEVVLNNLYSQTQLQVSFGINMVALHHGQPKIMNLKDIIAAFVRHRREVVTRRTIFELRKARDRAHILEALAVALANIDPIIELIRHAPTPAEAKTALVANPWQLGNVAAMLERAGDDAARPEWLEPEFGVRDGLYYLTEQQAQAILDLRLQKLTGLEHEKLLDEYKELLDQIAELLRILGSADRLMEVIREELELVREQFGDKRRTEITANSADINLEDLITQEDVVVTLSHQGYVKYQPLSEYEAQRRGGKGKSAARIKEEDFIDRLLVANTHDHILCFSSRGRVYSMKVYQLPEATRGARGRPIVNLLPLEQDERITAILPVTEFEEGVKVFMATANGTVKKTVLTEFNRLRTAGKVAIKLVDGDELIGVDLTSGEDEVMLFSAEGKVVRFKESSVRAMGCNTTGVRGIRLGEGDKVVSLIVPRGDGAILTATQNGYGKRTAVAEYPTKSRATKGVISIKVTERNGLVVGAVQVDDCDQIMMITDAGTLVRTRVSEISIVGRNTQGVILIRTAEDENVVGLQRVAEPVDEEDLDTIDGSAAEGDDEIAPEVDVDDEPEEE

[8] = biological target: E. coli topoisomerase IV (Escherichia coli, UniProt P0AFI2+P20083); test: biochemical; details: decatenation assay; read-out: E. coli Topo IV IC50
Sequence of E. coli topoisomerase IV (P20083 whole entry): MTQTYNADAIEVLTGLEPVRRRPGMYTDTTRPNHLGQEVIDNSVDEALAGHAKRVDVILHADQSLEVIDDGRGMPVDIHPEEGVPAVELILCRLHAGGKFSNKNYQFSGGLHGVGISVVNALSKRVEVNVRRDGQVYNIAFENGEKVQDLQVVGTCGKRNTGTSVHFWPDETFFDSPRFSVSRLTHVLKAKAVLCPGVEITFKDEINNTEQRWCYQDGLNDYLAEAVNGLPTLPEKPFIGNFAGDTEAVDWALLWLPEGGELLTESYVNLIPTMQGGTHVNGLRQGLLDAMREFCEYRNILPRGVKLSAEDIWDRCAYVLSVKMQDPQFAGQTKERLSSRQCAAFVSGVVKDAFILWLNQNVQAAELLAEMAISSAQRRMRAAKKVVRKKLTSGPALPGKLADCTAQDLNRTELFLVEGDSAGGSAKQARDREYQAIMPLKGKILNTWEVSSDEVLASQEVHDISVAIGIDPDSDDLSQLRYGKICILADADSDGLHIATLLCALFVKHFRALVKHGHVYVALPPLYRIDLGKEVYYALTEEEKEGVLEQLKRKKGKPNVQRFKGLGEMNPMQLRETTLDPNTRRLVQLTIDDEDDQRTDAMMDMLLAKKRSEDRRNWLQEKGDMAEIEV
Sequence of E. coli topoisomerase IV (P0AFI2 whole entry): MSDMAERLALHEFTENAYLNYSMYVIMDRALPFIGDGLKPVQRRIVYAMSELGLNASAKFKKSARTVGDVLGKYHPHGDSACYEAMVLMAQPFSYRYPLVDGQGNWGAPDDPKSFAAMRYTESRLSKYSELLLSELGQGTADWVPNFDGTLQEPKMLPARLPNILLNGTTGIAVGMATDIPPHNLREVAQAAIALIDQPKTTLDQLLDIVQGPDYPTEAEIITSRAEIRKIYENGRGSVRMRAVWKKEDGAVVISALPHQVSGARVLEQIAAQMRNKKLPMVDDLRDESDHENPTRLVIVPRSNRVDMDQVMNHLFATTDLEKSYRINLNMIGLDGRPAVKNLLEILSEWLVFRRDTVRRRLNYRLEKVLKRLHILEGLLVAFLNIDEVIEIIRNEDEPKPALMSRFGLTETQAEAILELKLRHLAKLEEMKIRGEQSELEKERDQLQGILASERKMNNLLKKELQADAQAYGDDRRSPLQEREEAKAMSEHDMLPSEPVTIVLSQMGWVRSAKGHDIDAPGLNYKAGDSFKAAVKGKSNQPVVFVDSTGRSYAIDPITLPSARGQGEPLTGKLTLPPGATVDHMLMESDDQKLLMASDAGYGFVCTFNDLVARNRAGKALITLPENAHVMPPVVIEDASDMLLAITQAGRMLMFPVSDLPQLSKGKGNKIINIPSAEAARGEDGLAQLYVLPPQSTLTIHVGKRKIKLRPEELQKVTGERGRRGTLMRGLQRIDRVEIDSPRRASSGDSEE

[9] = biological target: T1, human ether a go-go related gene (hERG) K+ channel (Homo sapiens, UniProt Q12809); test: hERG inhibition assay, QPatch HTX automated electrophysiology; format: cell-based; details: CHO cell line stably expressing hERG, whole-cell patch clamp, maximum test concentration 300 μM
T1 construct: Chinese Hamster Ovary cell line stably expressing the full-length hERG potassium channel; expressed in transfected cells
T1 sequence (Q12809 whole entry): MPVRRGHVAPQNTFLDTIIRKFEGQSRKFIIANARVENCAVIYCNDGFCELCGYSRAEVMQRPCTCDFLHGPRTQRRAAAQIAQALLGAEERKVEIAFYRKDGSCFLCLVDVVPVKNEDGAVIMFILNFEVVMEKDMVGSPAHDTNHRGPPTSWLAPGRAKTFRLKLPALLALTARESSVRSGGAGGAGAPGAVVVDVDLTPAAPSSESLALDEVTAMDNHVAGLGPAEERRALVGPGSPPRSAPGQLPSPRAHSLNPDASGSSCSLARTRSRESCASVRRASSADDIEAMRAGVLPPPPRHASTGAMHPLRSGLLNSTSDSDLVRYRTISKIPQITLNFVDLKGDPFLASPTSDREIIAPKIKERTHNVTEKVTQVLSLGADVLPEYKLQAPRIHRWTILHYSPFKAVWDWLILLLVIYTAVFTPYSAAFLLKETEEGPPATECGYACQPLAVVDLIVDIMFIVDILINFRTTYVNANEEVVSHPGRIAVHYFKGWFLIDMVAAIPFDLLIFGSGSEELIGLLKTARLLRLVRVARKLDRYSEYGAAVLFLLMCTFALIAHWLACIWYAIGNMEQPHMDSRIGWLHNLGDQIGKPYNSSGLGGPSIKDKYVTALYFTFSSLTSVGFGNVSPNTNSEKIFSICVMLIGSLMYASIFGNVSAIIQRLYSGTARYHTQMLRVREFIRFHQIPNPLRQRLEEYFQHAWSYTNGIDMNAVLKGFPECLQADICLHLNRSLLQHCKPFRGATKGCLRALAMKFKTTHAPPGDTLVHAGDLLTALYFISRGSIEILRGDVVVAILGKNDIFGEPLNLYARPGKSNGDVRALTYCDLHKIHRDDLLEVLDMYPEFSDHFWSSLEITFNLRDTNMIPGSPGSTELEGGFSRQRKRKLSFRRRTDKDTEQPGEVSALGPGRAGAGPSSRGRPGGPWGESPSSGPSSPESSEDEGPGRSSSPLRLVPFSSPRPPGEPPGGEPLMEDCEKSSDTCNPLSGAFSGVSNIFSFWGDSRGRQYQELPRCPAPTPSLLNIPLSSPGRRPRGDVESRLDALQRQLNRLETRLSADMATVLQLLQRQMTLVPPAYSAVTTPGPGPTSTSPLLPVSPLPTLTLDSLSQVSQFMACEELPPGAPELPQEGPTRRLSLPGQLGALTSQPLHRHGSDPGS
Protocol: The compounds were tested for inhibition of the human ether a go-go related gene (hERG) K+ channel using QPatch HTX automated electrophysiology.
Compounds were solubilised to 100 mM in DMSO before dilution in HBPS to 300 μM.
Electrophysiological recordings were made from a Chinese Hamster Ovary cell line stably expressing the full-length hERG potassium channel. Single cell ionic currents were measured in whole-cell patch clamp configuration at room temperature (21-23° C.) using the QPatch HTX platform (Sophion). Intracellular solution contained (mM): 120 KF, 20 KCl, 10 EGTA, 10 HEPES and was buffered to pH 7.3. […] Cells were clamped at a holding potential of −80 mV. […] This sweep was repeated 10 times at 10 s intervals. hERG currents were measured from the tail step and referenced to the holding current. Compounds were then incubated for 2 minutes prior to a second measurement of ion channel current using an identical pulse train.

Row | Compound | MIC [1] [µg/mL] | MIC [2] [µg/mL] | MIC [3] [µg/mL] | MIC [4] [µg/mL] | MIC [5] [µg/mL] | MIC [6] [µg/mL] | IC50 [7] [nM] | IC50 [8] [nM] | IC50 [9] [µM]
1 | O=C1COc2ccc(N3C[C@H](CNCCc4c(F)ccc5ncc(=O)n(CCO)c45)OC3=O)nc2N1 [Example 9, (S)-6-(5-(((2-(6-fluoro-4-(2-hydroxyethyl)-3-oxo-3,4-dihydroquinoxalin-5-yl)ethyl)amino)methyl)-2-oxooxazolidin-3-yl)-2H-pyrido[3,2-b][1,4]oxazin-3(4H)-one] | 0.125 (≈ 0.251 µM) | 0.06 (≈ 0.12 µM) | 0.13 (≈ 0.261 µM) | 1 (≈ 2.01 µM) | 0.03 (≈ 0.0602 µM) | 0.06 (≈ 0.12 µM) | 3.2 | 175 | 68.7
2 | O=C1COc2ccc(N3C[C@H](CNCCc4c(F)ccc5ccc(=O)n(CCO)c45)OC3=O)nc2N1 [Example 10, (S)-6-(5-(((2-(7-fluoro-1-(2-hydroxyethyl)-2-oxo-1,2-dihydroquinolin-8-yl)ethyl)amino)methyl)-2-oxooxazolidin-3-yl)-2H-pyrido[3,2-b][1,4]oxazin-3(4H)-one] | 0.06 (≈ 0.121 µM) | 0.03 (≈ 0.0603 µM) | 0.06 (≈ 0.121 µM) | 0.5 (≈ 1.01 µM) | 0.015 (≈ 0.0302 µM) | 0.125 (≈ 0.251 µM) | 5.9 | 30 | 71
3 | Cn1c(=O)cc(CN)c2ccc(F)c(CCNC[C@H]3CN(c4ccc5c(n4)NC(=O)CO5)C(=O)O3)c21 [Example 13, (S)-6-(5-(((2-(4-(aminomethyl)-7-fluoro-1-methyl-2-oxo-1,2-dihydroquinolin-8-yl)ethyl)amino)methyl)-2-oxooxazolidin-3-yl)-2H-pyrido[3,2-b][1,4]oxazin-3(4H)-one] | 0.5 (≈ 1.01 µM) | 0.125 (≈ 0.252 µM) | 0.25 (≈ 0.504 µM) | 0.5 (≈ 1.01 µM) | 0.25 (≈ 0.504 µM) | 1 (≈ 2.01 µM) | 20 | 32 | > 300
4 | Cn1c(=O)ccc2ccc(F)c(CCNC[C@@H]3CN(c4cnc5c(n4)NC(=O)CO5)C(=O)O3)c21 [Example 14, (R)-6-(5-(((2-(7-fluoro-1-methyl-2-oxo-1,2-dihydroquinolin-8-yl)ethyl)amino)methyl)-2-oxooxazolidin-3-yl)-2H-pyrazino[2,3-b][1,4]oxazin-3(4H)-one] | 0.06 (≈ 0.128 µM) | 0.06 (≈ 0.128 µM) | 0.06 (≈ 0.128 µM) | 0.5 (≈ 1.07 µM) | ≤ 0.015 | 0.25 (≈ 0.534 µM) | 13 | 52 | 41
5 | Cn1c(=O)ccc2ccc(F)c(CCNC[C@H]3CN(c4ncc5c(n4)NC(=O)CO5)C(=O)O3)c21 [Example 16, (S)-2-(5-(((2-(7-fluoro-1-methyl-2-oxo-1,2-dihydroquinolin-8-yl)ethyl)amino)methyl)-2-oxooxazolidin-3-yl)-6H-pyrimido[5,4-b][1,4]oxazin-7(8H)-one] | 0.25 (≈ 0.534 µM) | 0.06 (≈ 0.128 µM) | 0.25 (≈ 0.534 µM) | 1 (≈ 2.13 µM) | 0.06 (≈ 0.128 µM) | 0.25 (≈ 0.534 µM) | 41 | 112 | 204
6 | O=C1COc2ncc(N3C[C@H](CNCCc4c(F)ccc5ccc(=O)n(CCO)c45)OC3=O)nc2N1 [Example 20, (S)-6-(5-(((2-(7-fluoro-1-(2-hydroxyethyl)-2-oxo-1,2-dihydroquinolin-8-yl)ethyl)amino)methyl)-2-oxooxazolidin-3-yl)-2H-pyrazino[2,3-b][1,4]oxazin-3(4H)-one] | 0.125 (≈ 0.251 µM) | 0.125 (≈ 0.251 µM) | 0.5 (≈ 1 µM) | 0.5 (≈ 1 µM) | 0.03 (≈ 0.0602 µM) | 2 (≈ 4.01 µM) | 10.6 | 90 | > 300
7 | Cn1c(=O)ccc2ccc(F)c(CCCNC[C@H]3CN(c4cnc5c(n4)NC(=O)CO5)C(=O)O3)c21 [Example 22, (S)-6-(5-(((3-(7-fluoro-1-methyl-2-oxo-1,2-dihydroquinolin-8-yl)propyl)amino)methyl)-2-oxooxazolidin-3-yl)-2H-pyrazino[2,3-b][1,4]oxazin-3(4H)-one] | 0.06 (≈ 0.124 µM) | 0.03 (≈ 0.0622 µM) | 0.06 (≈ 0.124 µM) | 0.25 (≈ 0.518 µM) | ≤ 0.015 | 0.015 (≈ 0.0311 µM) | 3.2 | 19 | 128
8 | Cn1c(=O)ccc2ccc(F)c(CCCNC[C@@H]3CN(c4cnc5c(n4)NC(=O)CO5)C(=O)O3)c21 [Example 23, (R)-6-(5-(((3-(7-fluoro-1-methyl-2-oxo-1,2-dihydroquinolin-8-yl)propyl)amino)methyl)-2-oxooxazolidin-3-yl)-2H-pyrazino[2,3-b][1,4]oxazin-3(4H)-one] | 0.06 (≈ 0.124 µM) | 0.03 (≈ 0.0622 µM) | 0.03 (≈ 0.0622 µM) | 0.25 (≈ 0.518 µM) | 0.015 (≈ 0.0311 µM) | 0.015 (≈ 0.0311 µM) | 4.9 | 37 | 35
